According to patent US9926282B2, “Phthalazinones and isoquinolinones as rock inhibitors” (BRISTOL-MYERS SQUIBB COMPANY, priority 2013, dated 2018):
Structures can show the parent of a compound that is named as a salt.

How the values were obtained:
ROCK2 = ROCK2 (Homo sapiens (Human), UniProt O75116); experiment: ROCK assay (LABCHIP peptide phosphorylation), ROCK2; type: biochemical; conditions: 5 μM ATP, 1.5 μM peptide substrate
ROCK1 = ROCK1 (Homo sapiens (Human), UniProt Q13464); experiment: ROCK assay (LABCHIP peptide phosphorylation), ROCK1; type: biochemical; conditions: 5 μM ATP, 1.5 μM peptide substrate; read-out: ROCK1 IC50
ROCK1, sequence (Q13464 whole entry, species assumed): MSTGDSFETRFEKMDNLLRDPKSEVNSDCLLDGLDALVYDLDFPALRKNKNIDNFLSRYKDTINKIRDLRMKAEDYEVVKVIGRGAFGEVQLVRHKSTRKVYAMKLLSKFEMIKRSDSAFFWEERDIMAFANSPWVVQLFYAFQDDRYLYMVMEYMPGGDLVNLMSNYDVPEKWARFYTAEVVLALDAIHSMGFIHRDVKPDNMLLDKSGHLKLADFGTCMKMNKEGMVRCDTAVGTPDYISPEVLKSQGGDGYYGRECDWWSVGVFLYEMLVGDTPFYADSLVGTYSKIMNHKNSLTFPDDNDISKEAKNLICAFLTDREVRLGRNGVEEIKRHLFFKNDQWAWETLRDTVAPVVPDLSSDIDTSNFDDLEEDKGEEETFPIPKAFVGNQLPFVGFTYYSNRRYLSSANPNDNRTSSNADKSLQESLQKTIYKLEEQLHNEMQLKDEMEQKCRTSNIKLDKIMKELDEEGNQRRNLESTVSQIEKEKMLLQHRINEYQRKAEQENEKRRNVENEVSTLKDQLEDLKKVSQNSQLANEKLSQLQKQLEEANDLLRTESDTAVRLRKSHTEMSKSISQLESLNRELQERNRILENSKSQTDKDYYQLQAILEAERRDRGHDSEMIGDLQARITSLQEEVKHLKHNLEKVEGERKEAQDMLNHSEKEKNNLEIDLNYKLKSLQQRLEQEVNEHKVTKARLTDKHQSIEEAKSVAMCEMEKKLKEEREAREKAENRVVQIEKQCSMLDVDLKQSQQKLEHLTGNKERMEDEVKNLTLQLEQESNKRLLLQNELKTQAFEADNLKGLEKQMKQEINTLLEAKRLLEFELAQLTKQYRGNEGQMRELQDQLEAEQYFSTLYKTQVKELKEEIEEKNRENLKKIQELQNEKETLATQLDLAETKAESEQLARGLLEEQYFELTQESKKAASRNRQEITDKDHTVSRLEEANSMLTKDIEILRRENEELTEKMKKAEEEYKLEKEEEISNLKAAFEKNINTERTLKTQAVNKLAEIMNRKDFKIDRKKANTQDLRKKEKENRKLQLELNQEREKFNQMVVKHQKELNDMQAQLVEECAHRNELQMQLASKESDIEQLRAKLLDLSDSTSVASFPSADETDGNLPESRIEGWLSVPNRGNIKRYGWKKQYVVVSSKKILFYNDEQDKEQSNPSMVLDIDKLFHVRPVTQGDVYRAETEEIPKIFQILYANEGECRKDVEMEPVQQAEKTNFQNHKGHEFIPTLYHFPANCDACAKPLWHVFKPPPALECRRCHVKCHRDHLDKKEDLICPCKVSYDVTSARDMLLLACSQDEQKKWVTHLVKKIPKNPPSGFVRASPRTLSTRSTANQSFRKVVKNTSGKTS

ROCK2, sequence (O75116 whole entry, species assumed): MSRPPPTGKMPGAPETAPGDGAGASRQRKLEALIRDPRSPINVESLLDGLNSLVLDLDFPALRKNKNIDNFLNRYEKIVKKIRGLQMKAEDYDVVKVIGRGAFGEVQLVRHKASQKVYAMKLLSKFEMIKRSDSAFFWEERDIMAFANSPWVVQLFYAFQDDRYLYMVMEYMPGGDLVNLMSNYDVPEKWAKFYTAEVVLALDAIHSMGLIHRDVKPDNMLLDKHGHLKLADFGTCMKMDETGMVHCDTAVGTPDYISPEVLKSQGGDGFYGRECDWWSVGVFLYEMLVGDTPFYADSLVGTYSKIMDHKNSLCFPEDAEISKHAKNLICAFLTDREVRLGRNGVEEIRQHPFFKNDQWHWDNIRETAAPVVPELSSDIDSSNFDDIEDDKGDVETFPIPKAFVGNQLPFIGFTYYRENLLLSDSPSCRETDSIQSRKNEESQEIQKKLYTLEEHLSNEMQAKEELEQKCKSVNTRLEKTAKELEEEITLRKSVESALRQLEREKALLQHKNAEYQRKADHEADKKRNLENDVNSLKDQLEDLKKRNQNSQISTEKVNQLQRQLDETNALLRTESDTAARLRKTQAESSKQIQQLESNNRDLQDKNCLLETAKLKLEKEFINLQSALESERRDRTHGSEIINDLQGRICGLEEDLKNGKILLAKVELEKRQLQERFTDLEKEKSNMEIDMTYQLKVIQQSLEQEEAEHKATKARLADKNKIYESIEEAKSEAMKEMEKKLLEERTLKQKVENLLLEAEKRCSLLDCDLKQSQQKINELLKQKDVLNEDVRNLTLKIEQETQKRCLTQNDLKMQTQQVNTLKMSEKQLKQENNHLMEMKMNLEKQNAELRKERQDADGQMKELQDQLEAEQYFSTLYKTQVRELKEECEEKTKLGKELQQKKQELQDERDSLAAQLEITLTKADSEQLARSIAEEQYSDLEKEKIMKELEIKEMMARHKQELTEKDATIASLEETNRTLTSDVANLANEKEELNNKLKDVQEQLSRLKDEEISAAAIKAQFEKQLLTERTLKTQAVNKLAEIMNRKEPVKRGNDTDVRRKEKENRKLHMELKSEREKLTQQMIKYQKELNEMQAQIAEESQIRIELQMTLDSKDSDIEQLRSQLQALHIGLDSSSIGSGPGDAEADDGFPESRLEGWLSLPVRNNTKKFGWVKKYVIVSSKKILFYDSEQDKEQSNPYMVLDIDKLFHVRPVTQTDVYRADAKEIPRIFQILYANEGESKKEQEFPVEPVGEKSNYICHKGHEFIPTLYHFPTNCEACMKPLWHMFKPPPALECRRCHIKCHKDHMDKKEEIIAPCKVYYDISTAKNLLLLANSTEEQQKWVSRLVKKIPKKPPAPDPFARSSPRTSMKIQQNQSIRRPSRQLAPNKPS

SMILES | IC50 (ROCK2) [µM] | IC50 (ROCK1) [µM]
O=C(Nc1ccc(-c2n[nH]c(=O)c3ccccc23)cc1)c1nc2c(s1)CCCC2 [Example 53, N-[4-(4-oxo-3,4-dihydrophthalazin-1-yl)phenyl]-4,5,6,7-tetrahydro-1,3-benzothiazole-2-carboxamide] | 0.0001 to 0.1 | 0.0001 to 0.1
O=C(Nc1ccc(-c2n[nH]c(=O)c3ccccc23)cc1)c1cnn2cc(OCCN3CCOCC3)ccc12 [Example 188, 6-[2-(morpholin-4-yl)ethoxy]-N-[4-(4-oxo-3,4-dihydrophthalazin-1-yl)phenyl]pyrazolo[1,5-a]pyridine-3-carboxamide] | 0.0001 to 0.1 | 0.0001 to 0.1
COc1ccc2c(=O)[nH]cc(-c3ccc(OC(=O)N4Cc5ccccc5C4)cc3)c2c1 [Example 269, 4-(6-Methoxy-1-oxo-1,2-dihydroisoquinolin-4-yl)phenyl isoindoline-2-carboxylate] | 0.0001 to 0.1 | 1 to 50
O=C(Cc1ccc(-c2n[nH]c(=O)c3ccccc23)cc1)N1CCc2ccc(OCc3ccccc3)cc21 [Example 83, 4-(4-(2-(6-(Benzyloxy)indolin-1-yl)-2-oxoethyl)phenyl)phthalazin-1(2H)-one] | 0.0001 to 0.1 | 0.0001 to 0.1
Cc1cc(NC(=O)Cc2ccc(-c3n[nH]c(=O)c4ccccc34)cc2)on1 [Example 26, N-(3-methyl-1,2-oxazol-5-yl)-2-[4-(4-oxo-3,4-dihydrophthalazin-1-yl)phenyl]acetamide] | 0.0001 to 0.1 | 1 to 50
O=C(Nc1ccc(-c2n[nH]c(=O)c3ccccc23)cc1)c1c[nH]c(-c2ccccc2)n1 [Example 230, N-[4-(4-oxo-3,4-dihydrophthalazin-1-yl)phenyl]-2-phenyl-1H-imidazole-4-carboxamide] | 0.0001 to 0.1 | 0.0001 to 0.1
O=C(Nc1ccc(-c2c[nH]c(=O)c3ccccc23)cc1)c1nc2c(s1)CCCC2 [Example 246, N-(4-(1-Oxo-1,2-dihydroisoquinolin-4-yl)phenyl)-4,5,6,7-tetrahydrobenzo[d]thiazole-2-carboxamide] | 0.0001 to 0.1 | 0.0001 to 0.1
COc1ccc2c(c1)CN(C(=O)Oc1ccc(-c3n[nH]c(=O)c4ccccc34)cc1)C2 [Example 70, 4-(4-Oxo-3,4-dihydrophthalazin-1-yl)phenyl 5-methoxyisoindoline-2-carboxylate] | 0.0001 to 0.1 | 1 to 50
COc1ccc2c(c1)N(C(=O)Nc1ccc(-c3c[nH]c(=O)c4cc(OC)c(OC)cc34)cc1)CC2 [Example 257, N-(4-(6,7-Dimethoxy-1-oxo-1,2-dihydroisoquinolin-4-yl)phenyl)-6-methoxyindoline-1-carboxamide] | 0.0001 to 0.1 | 1 to 50
O=C(Nc1ccc(-c2n[nH]c(=O)c3ccccc23)cc1)c1cn(C2CCNCC2)nn1 [Example 372, N-(4-(4-Oxo-3,4-dihydrophthalazin-1-yl)phenyl)-1-(piperidin-4-yl)-1H-1,2,3-triazole-4-carboxamide] | 0.101 to 1 | 0.101 to 1
O=C(Nc1ccc(-c2n[nH]c(=O)c3ccccc23)c(CO)c1)c1nn(CC2CCOC2)c2ccc(F)cc12 (stereo not drawn) [Example 366, 5-Fluoro-N-(3-(hydroxymethyl)-4-(4-oxo-3,4-dihydrophthalazin-1-yl)phenyl)-1-((tetrahydrofuran-3-yl)methyl)-1H-indazole-3-carboxamide] | 0.0001 to 0.1 | 0.101 to 1
CCCc1cc(C(=O)Nc2ccc(-c3n[nH]c(=O)c4ccccc34)cc2)nn1C [Example 229, 1-methyl-N-[4-(4-oxo-3,4-dihydrophthalazin-1-yl)phenyl]-5-propyl-1H-pyrazole-3-carboxamide] | 0.0001 to 0.1 | 0.0001 to 0.1
NC(=O)COc1ccc2c(c1)N(C(=O)Cc1ccc(-c3n[nH]c(=O)c4ccccc34)cc1)CC2 [Example 298, 2-((1-(2-(4-(4-Oxo-3,4-dihydrophthalazin-1-yl)phenyl)acetyl)indolin-6-yl)oxy)acetamide] | 0.0001 to 0.1 | 0.0001 to 0.1
CC(C)(O)COc1ccc2c(C(=O)Nc3ccc(-c4n[nH]c(=O)c5ccccc45)cc3)cnn2c1 [Example 172, 6-(2-hydroxy-2-methylpropoxy)-N-[4-(4-oxo-3,4-dihydrophthalazin-1-yl)phenyl]pyrazolo[1,5-a]pyridine-3-carboxamide] | 0.0001 to 0.1 | 0.0001 to 0.1
Cc1cc(NC(=O)c2nn(CC3CNC3)c3ccccc23)ccc1-c1n[nH]c(=O)c2ccccc12 [Example 326, 1-(Azetidin-3-ylmethyl)-N-(3-methyl-4-(4-oxo-3,4-dihydrophthalazin-1-yl)phenyl)-1H-indazole-3-carboxamide, TFA] | 0.101 to 1 | 0.0001 to 0.1
CC1(C)CN(C(=O)Cc2ccc(-c3n[nH]c(=O)c4ccccc34)cc2)c2ccccc21 [Example 39, 4-{4-[2-(3,3-dimethyl-2,3-dihydro-1H-indol-1-yl)-2-oxoethyl]phenyl}-1,2-dihydrophthalazin-1-one] | 0.0001 to 0.1 | 0.101 to 1
CC(O)COc1ccn2ncc(C(=O)Nc3ccc(-c4n[nH]c(=O)c5ccccc45)cc3)c2c1 (stereo not drawn) [Example 185, 5-(2-hydroxypropoxy)-N-[4-(4-oxo-3,4-dihydrophthalazin-1-yl)phenyl]pyrazolo[1 5-a]pyridine-3-carboxamide] | 0.0001 to 0.1 | 0.0001 to 0.1

SMILES | IC50 (ROCK2) [µM] | IC50 (ROCK1) [µM]
Cc1ccn2c(C(=O)Nc3ccc(-c4n[nH]c(=O)c5ccccc45)cc3)c(C)nc2c1 [Example 139, 2,7-dimethyl-N-[4-(4-oxo-3,4-dihydrophthalazin-1-yl)phenyl]imidazo[1,2-a]pyridine-3-carboxamide] | 0.0001 to 0.1 | 0.0001 to 0.1
CC(O)Cn1nc(C(=O)Nc2ccc(-c3n[nH]c(=O)c4ccccc34)cc2)c2ccccc21 (stereo not drawn) [Example 153, 1-(2-hydroxypropyl)-N-[4-(4-oxo-3,4-dihydrophthalazin-1-yl)phenyl]-1H-indazole-3-carboxamide] | 0.0001 to 0.1 | 0.0001 to 0.1
O=C(Nc1ccc(-c2n[nH]c(=O)c3ccccc23)cc1)C1CCN(c2ccc([N+](=O)[O-])cc2)CC1 [Example 54, 1-(4-nitrophenyl)-N-[4-(4-oxo-3,4-dihydrophthalazin-1-yl)phenyl]piperidine-4-carboxamide] | 0.0001 to 0.1 | 0.101 to 1
CC(C)n1nc(C(=O)Nc2ccc(-c3n[nH]c(=O)c4ccccc34)cc2)c2ccccc21 [Example 132, N-[4-(4-oxo-3,4-dihydrophthalazin-1-yl)phenyl]-1-(propan-2-yl)-1H-indazole-3-carboxamide] | 0.0001 to 0.1 | 0.0001 to 0.1
COc1ccc2c(=O)[nH]cc(-c3ccc(CC(=O)N4Cc5ccccc5C4)cc3)c2c1 [Example 262, 4-{4-[2-(2,3-Dihydro-1H-isoindol-2-yl)-2-oxoethyl]phenyl}-6-methoxy-1,2-dihydroisoquinolin-1-one] | 0.0001 to 0.1 | 0.101 to 1
O=C(O)CCn1nc(C(=O)Nc2ccc(-c3n[nH]c(=O)c4ccccc34)cc2)c2ccccc21 [Example 331, 3-(3-((4-(4-Pxo-3,4-dihydrophthalazin-1-yl)phenyl)carbamoyl)-1H-indazol-1-yl)propanoic acid] | 0.0001 to 0.1 | 0.101 to 1
Cc1nc2ccccn2c1C(=O)Nc1ccc(-c2n[nH]c(=O)c3ccccc23)cc1 [Example 95, 2-methyl-N-[4-(4-oxo-3,4-dihydrophthalazin-1-yl)phenyl]imidazo[1,2-a]pyridine-3-carboxamide] | 0.0001 to 0.1 | 0.0001 to 0.1
O=C(Nc1ccc(-c2n[nH]c(=O)c3ccccc23)cc1)C1CC(c2cccc(Cl)c2F)=NO1 (stereo not drawn) [Example 193, 3-(3-chloro-2-fluorophenyl)-N-[4-(4-oxo-3,4-dihydrophthalazin-1-yl)phenyl]-4,5-dihydro-1,2-oxazole-5-carboxamide] | 0.101 to 1 | 1 to 50
O=C(c1ccc2c(c1)CCN2C(=O)Cc1ccc(-c2n[nH]c(=O)c3ccccc23)cc1)N1CCC(O)CC1 [Example 294, 4-(4-{2-[5-(4-hydroxypiperidine-1-carbonyl)-2,3-dihydro-1H-indol-1-yl]-2-oxoethyl}phenyl)-1,2-dihydrophthalazin-1-one] | 0.0001 to 0.1 | 0.101 to 1
Cc1ccccc1-n1ncc(C(=O)Nc2ccc(-c3n[nH]c(=O)c4ccccc34)cc2)c1C [Example 214, 5-methyl-1-(2-methylphenyl)-N-[4-(4-oxo-3,4-dihydrophthalazin-1-yl)phenyl]-1H-pyrazole-4-carboxamide] | 0.0001 to 0.1 | 0.0001 to 0.1
COCCCn1nc(C(=O)Nc2ccc(-c3n[nH]c(=O)c4ccccc34)cc2)c2ccccc21 [Example 163, 1-(3-methoxypropyl)-N-[4-(4-oxo-3,4-dihydrophthalazin-1-yl)phenyl]-1H-indazole-3-carboxamide] | 0.0001 to 0.1 | 0.0001 to 0.1
O=C(Nc1ccc(-c2n[nH]c(=O)c3ccccc23)cc1)c1nn(Cc2ccccc2)c2ccccc12 [Example 99, 1-benzyl-N-[4-(4-oxo-3,4-dihydrophthalazin-1-yl)phenyl]-1H-indazole-3-carboxamide] | 0.0001 to 0.1 | 0.0001 to 0.1
O=C(Nc1ccc(-c2n[nH]c(=O)c3ccccc23)cc1)C1Cc2cc(O)ccc2O1 (stereo not drawn) [Example 106, 5-hydroxy-N-[4-(4-oxo-3,4-dihydrophthalazin-1-yl)phenyl]-2,3-dihydro-1-benzofuran-2-carboxamide] | 0.0001 to 0.1 | 1 to 50
Cc1onc(NC(=O)Cc2ccc(-c3n[nH]c(=O)c4ccccc34)cc2)c1C [Example 280, N-(dimethyl-1,2-oxazol-3-yl)-2-[4-(4-oxo-3,4-dihydrophthalazin-1-yl)phenyl]acetamide] | 0.0001 to 0.1 | 0.101 to 1
COc1ccccc1-n1nnc(C(=O)Nc2ccc(-c3n[nH]c(=O)c4ccccc34)cc2)c1C [Example 405, 1-(2-Methoxyphenyl)-5-methyl-N-(4-(4-oxo-3,4-dihydrophthalazin-1-yl)phenyl)-1H-1,2,3-triazole-4-carboxamide] | 0.0001 to 0.1 | 0.0001 to 0.1
Cn1cc(C(=O)Nc2ccc(-c3n[nH]c(=O)c4ccccc34)cc2)c2ccccc21 [Example 122, 1-methyl-N-[4-(4-oxo-3,4-dihydrophthalazin-1-yl)phenyl]-1H-indole-3-carboxamide] | 0.0001 to 0.1 | 0.0001 to 0.1
